Experimental data from ChEMBL document CHEMBL3797180, “Squaramides with cytotoxic activity against human gastric carcinoma cells HGC-27: synthesis and mechanism of action” (Medchemcomm, 2016).
Calls of active or inactive are those of the source. The calls are words filed in the database; no cut-off is given here.

Columns and labels:
HeLa [1] = assay: Cytotoxicity against human HeLa cells assessed as inhibition of cell viability at 100 uM after 24 hrs by MTT assay; format: functional, cell-based
HGC-27 [2] = assay: Cytotoxicity against HGC27 cells assessed as inhibition of cell viability at 100 uM after 24 hrs by MTT assay; format: functional, cell-based; details: Homo sapiens
HGC-27 [3] = assay: Cytotoxicity against HGC27 cells assessed as inhibition of cell viability at 20 uM after 24 hrs by MTT assay; format: functional, cell-based; details: Homo sapiens
HeLa [4] = assay: Cytotoxicity against human HeLa cells assessed as inhibition of cell viability at 20 uM after 24 hrs by MTT assay; format: functional, cell-based
HeLa [5] = assay: Cytotoxicity against human HeLa cells after 24 hrs by MTT assay; format: functional, cell-based
[6] = Cytotoxicity against HGC27 cells after 24 hrs by MTT assay; format: functional, cell-based; details: Homo sapiens, HGC-27, 24 h
HGC-27 [7] = assay: Induction of apoptosis in HGC27 cells assessed as early apoptotic cells at 2 uM after 24 hrs by Annexin-V-FITC/propidium iodide staining-based flow cytometry (reference value: 6.7%); format: functional, Homo sapiens
HGC-27 [8] = assay: Induction of apoptosis in HGC27 cells assessed as necrotic cells at 2 uM after 24 hrs by Annexin-V-FITC/propidium iodide staining-based flow cytometry; format: functional, Homo sapiens
HGC-27 [9] = assay: Induction of apoptosis in HGC27 cells assessed as late apoptotic cells at 2 uM after 24 hrs by Annexin-V-FITC/propidium iodide staining-based flow cytometry (reference value: 6.7%); format: functional, Homo sapiens
HGC-27 [10] = assay: Induction of apoptosis in HGC27 cells assessed as apoptotic cells after 24 hrs by Annexin-V-FITC/propidium iodide staining-based flow cytometry; format: functional, cell-based; details: Homo sapiens

SMILES	inhibition (HeLa [1])	inhibition (HGC-27 [2])	inhibition (HGC-27 [3])	inhibition (HeLa [4])	further results
COc1c(Nc2ccc([N+](=O)[O-])cc2)c(=O)c1=O	inactive	inactive			
COc1c(N[C@@H]2CCCC[C@H]2NS(=O)(=O)c2ccc(C)cc2)c(=O)c1=O	inactive	inactive			
O=c1c(Nc2cc(C(F)(F)F)cc(C(F)(F)F)c2)c(N[C@@H]2CCCC[C@H]2N2CCCCC2)c1=O	Active	Active	Active	Active	
Cc1ccc(S(=O)(=O)N[C@@H]2CCCC[C@H]2Nc2c(Nc3cc(C(F)(F)F)cc(C(F)(F)F)c3)c(=O)c2=O)cc1	Active	Active	inactive	inactive	
COc1c(N(C)c2ccccc2)c(=O)c1=O	inactive	inactive			
COc1ccc(Nc2c(OC)c(=O)c2=O)cc1	inactive	inactive			
O=c1c(Nc2cc(F)cc(F)c2)c(N[C@@H](c2ccccc2)C(O)(c2ccccc2)c2ccccc2)c1=O			Active	inactive	IC50 (HeLa [5]): > 20 µM; IC50 [6]: 3.39 µM
Cc1ccc(S(=O)(=O)N[C@@H]2CCCC[C@H]2Nc2c(NCc3cc(C(F)(F)F)cc(C(F)(F)F)c3)c(=O)c2=O)cc1	Active	Active	inactive	inactive	
C[C@@H](Nc1c(Nc2cc(C(F)(F)F)cc(C(F)(F)F)c2)c(=O)c1=O)c1ccccc1	Active	Active	inactive	inactive	
O=c1c(Nc2ccc(C(F)(F)F)cc2)c(N[C@@H]2CCCC[C@H]2N2CCCCC2)c1=O			inactive	inactive	
O=c1c(Nc2ccc3ccccc3c2-c2c(O)ccc3ccccc23)c(N[C@@H]2CCCC[C@H]2N2CCCC2)c1=O			Active	inactive	IC50 (HeLa [5]): > 20 µM; IC50 [6]: 10.8 µM
C=CC1CN2CCC1CC2[C@@H](Nc1c(Nc2cc(C(F)(F)F)cc(C(F)(F)F)c2)c(=O)c1=O)c1ccnc2ccccc12 (stereo partly drawn)	Active	Active	Active	Active	IC50 (HeLa [5]): 11.3 µM; IC50 [6]: 8.12 µM
COc1ccc(Nc2c(OC)c(=O)c2=O)c(OC)c1	inactive	inactive			
COc1c(Nc2cc(OC(C)C)c(Cl)cc2Cl)c(=O)c1=O	inactive	inactive			
COc1c(Nc2ccc(C(C)(C)C)cc2)c(=O)c1=O	inactive	inactive			
C=CC1CN2CCC1CC2[C@@H](Nc1c(Nc2ccc(C(F)(F)F)cc2)c(=O)c1=O)c1ccnc2ccc(OC)cc12 (stereo partly drawn)	Active	Active	Active	inactive	IC50 (HeLa [5]): > 20 µM; IC50 [6]: 12.8 µM
COc1c(Nc2cc(F)c(F)c(F)c2)c(=O)c1=O	inactive	inactive			
O=c1c(Nc2ccc3ccccc3c2-c2c(O)ccc3ccccc23)c(N[C@@H]2CCCC[C@H]2N2CCCCC2)c1=O			Active	inactive	IC50 (HeLa [5]): > 20 µM; IC50 [6]: 11.1 µM

SMILES	inhibition (HeLa [1])	inhibition (HGC-27 [2])	inhibition (HGC-27 [3])	inhibition (HeLa [4])	further results
O=c1c(NCc2cc(C(F)(F)F)cc(C(F)(F)F)c2)c(N[C@@H]2CCCC[C@H]2N2CCCCC2)c1=O	Active	Active			
C=CC1CN2CCC1CC2[C@@H](Nc1c(NCc2cc(C(F)(F)F)cc(C(F)(F)F)c2)c(=O)c1=O)c1ccnc2ccc(OC)cc12 (stereo partly drawn)	Active	Active			
COc1cccc2c1C(=O)c1c(O)c3c(c(O)c1C2=O)C[C@@](O)(C(=O)CO)C[C@@H]3O[C@H]1C[C@H](N)[C@H](O)[C@H](C)O1 [DOXORUBICIN]					Activity (HGC-27 [7]): 3.2%; Activity (HGC-27 [8]): 32.4%; Activity (HGC-27 [9]): 16.7%; Activity (HGC-27 [10]): Dose-dependent effect; IC50 [6]: 37.4 µM
O=c1c(Nc2cc(C(F)(F)F)cc(C(F)(F)F)c2)c(N[C@@H](CO)Cc2ccccc2)c1=O	Active	Active	inactive	inactive	
COc1c(Nc2ccc(C(F)(F)F)cc2)c(=O)c1=O	inactive	inactive			
O=c1c(Nc2cc(C(F)(F)F)cc(C(F)(F)F)c2)c(N[C@H]2c3ccccc3C[C@H]2O)c1=O	Active	Active			
CN(C)[C@@H]1CCCC[C@H]1Nc1c(Nc2cc(C(F)(F)F)cc(C(F)(F)F)c2)c(=O)c1=O	Active	Active	inactive	inactive	
COc1c(Nc2cc(F)cc(F)c2)c(=O)c1=O	inactive	inactive			
O=c1c(Nc2ccc(C(F)(F)F)cc2)c(N[C@@H]2CCCC[C@@H]2N2CCCCC2)c1=O			inactive	inactive	
C[C@H](c1c(Nc2cc(F)cc(F)c2)c(=O)c1=O)c1cccc2ccccc12			Active	Active	
C=CC1CN2CCC1CC2[C@@H](Nc1c(Nc2ccc(C(F)(F)F)cc2)c(=O)c1=O)c1ccnc2ccccc12 (stereo partly drawn)	Active	Active	Active	Active	IC50 (HeLa [5]): 10.8 µM; IC50 [6]: 4.53 µM
O=c1c(Nc2cc(F)c(F)c(F)c2)c(N[C@@H]2CCCC[C@H]2N2CCCCC2)c1=O			inactive	inactive	
CCc1cc(C#N)ccc1Nc1c(OC)c(=O)c1=O	inactive	inactive			
COc1c(Nc2ccccc2)c(=O)c1=O	inactive	inactive			
COc1c(N[C@@H](C)c2cccc3ccccc23)c(=O)c1=O	inactive	inactive			
COc1c(N[C@H]2c3ccccc3C[C@H]2O)c(=O)c1=O	inactive	inactive			
C=CC1CN2CCC1CC2[C@H](Nc1c(NCc2cc(C(F)(F)F)cc(C(F)(F)F)c2)c(=O)c1=O)c1ccnc2ccccc12 (stereo partly drawn)	Active	Active	Active	Active	IC50 (HeLa [5]): 12.1 µM; IC50 [6]: 3.01 µM
C=CC1CN2CCC1CC2[C@@H](Nc1c(Nc2cc(C(F)(F)F)cc(C(F)(F)F)c2)c(=O)c1=O)c1ccnc2ccc(OC)cc12 (stereo partly drawn)	Active	Active	Active	Active	IC50 (HeLa [5]): 15.2 µM; IC50 [6]: 8.21 µM
